From patent publication US20150050235A1, “COMPOSITION FOR ATTRACTING MALE BLUEBERRY SPANWORM MOTH” (Her Majesty the Queen in Right of Canada, as represented by …, priority 2013, published 2015)

Assays:
[1] = tested on: male I. argillacearia moths; assay: Field experiment no. 1: captures of male moths in baited Delta traps; assay type: in vivo, Itame argillacearia; conditions: 50 μg per constituent, rubber septa in Delta traps, n=10
Experimental: Field Experiments. Two field experiments were conducted during the moth flight season in 2012. Traps were deployed in vegetative lowbush blueberry fields located in Farmington (field experiment no. 1) and Debert (field experiment no. 2), Nova Scotia. Lowbush blueberries are typically produced on a biennial cycle. After harvest, plants are pruned and enter a year-long vegetative phase.
In both field experiments, traps were arranged in a randomized complete block design with ten replicates in the first experiment and six replicates in the second field experiment. Counts of male moths in traps were done twice per week. Trap data were log10 (x+1) transformed to satisfy assumptions of normality and equal variance and were analyzed by ANOVA using Proc Mixed (SAS, 2001). Where significant differences were detected, Fisher's least significant difference (LSD) was used for multiple mean comparisons among treatments.
The first experiment attempted to clarify: (1) whether enantiomers of the tested epoxide compound differed in the ability to attract male I. argillacearia moths; and (2) whether a mixture of the tested epoxide and triene compounds was more attractive to male moths than each constituent alone.
Rubber septa (Wheaton, N.J., USA) loaded with treatments were placed within Delta® traps (Contech, Delta, British Columbia) with sticky inserts to capture moths. Traps were placed approximately 20 m apart (Cantelo et al., 1982; Hillier, 2001; Hillier et al., 2002), and suspended from iron stakes just above the blueberry canopy. The experiment had seven treatments.
Virgin female moths were held in 25 ml plastic Solo™ cups (TRA Cash and Carry, Truro, NS, Canada) perforated with approximately 20 5-mm holes. Traps were in the field from 9-26 Jul. 2012 and were emptied or replaced twice per week during this period.

[2] = tested on: Itame brunneata; conditions: without (Z,Z,Z)-3,6,9-17:H in the mixture; cited from earlier work

Structure (SMILES): CC/C=C\C/C=C\C/C=C\CCCCCCC [(Z,Z,Z)-3,6,9-17:H, Z,Z,Z-3,6,9-heptadecatriene]
- captures of male moths in traps (in words) [1]: Very few moths were recovered

Structure (SMILES): CCCCCCC/C=C\C/C=C\C[C@H]1O[C@H]1CC [3S,4R-epoxy-(Z,Z)-6,9-17:H, Z,Z-(3S,4R)-3,4-epoxy-6,9-heptadecadiene]
- captures of male moths in traps (in words) [1]: lack of captured moths

Structure (SMILES): CCCCCCC/C=C\C/C=C\C[C@@H]1O[C@@H]1CC (relative stereo) [3R,4S-epoxy-(Z,Z)-6,9-17:H, Z,Z-(3R,4S)-cis-3,4-epoxy-6,9-heptadecadiene]
- capture of moths [2]: captured
- captures of male moths in traps (in words) [1]: a significant number of moths were found
